US6355630B1, “Estra-1,3,5(10)-triene-7α-thioethers” (priority 1997, dated 2002)

Legend:
[1] = test system: Ishikawa uterine cells; assay: Ishikawa cell alkaline phosphatase test procedure; type: cell-based, human; conditions: 48 h
Method: Ishikawa Cell Alkaline Phosphatase Test Procedure
Cell Maintenance and Treatment
Ishikawa cells were maintained in DMEM/F12 (50%:50%) containing phenol red+10% fetal bovine serum and the medium was supplemented with 2 mM Glutamax, 1% Pen/Strap and 1 mM sodium pyruvate. Five days prior to the beginning of each evaluation (treatment of cells) the medium was changed to phenol red-free DMEM/F12+10% dextran coated charcoal stripped serum. On the day before treatment, cells were harvested using 0.5% trypsin/EDTA and plated at a density of 5×10^4 cells/well in 96-well tissue culture plates. […] Cells were treated for 48 h prior to assay. […] Sample population for at each dose was n=8.
Alkaline Phosphatase Test Procedure
At the end of 48 h the media was aspirated and cells were washed three times with phosphate buffered saline (PBS); 50 μL of lysis buffer (0.1 M Tris-HCl, pH 9.8, 0.2% Triton X-100) was added to each well. Plates were placed at −80° C. for a minimum of 15 minutes. Plates were thawed at 37° C. followed by the addition of 150 μL of 0.1 M Tris-HCl, pH 9.8, containing 4 mM para-nitrophenylphosphate (pNPP) to each well (final concentration, 3 mM pNPP).
Absorbance and slope calculations were made using the KineticCalc Application program (Bio-Tek Instruments, Inc., Winooski, Vt.). Results are expressed as the mean +/−S.D. of the rate of enzyme reaction (slope) averaged over the linear portion of the kinetic reaction curve (optical density readings every 5 minutes for 30 minutes absorbance reading).
The four compounds were used as reference standards:
A description of these methods is described by Holinka, C. F., Hata, H., Kuramoto, H. and Gurpide, E. (1986) Effects of steroid hormones and antisteroids on alkaline phosphatase activity in human endometrial cancer cells (Ishikawa Line). Cancer Research, 46:2771-2774, and by Littlefield, B. A., Gurpide, E., Markiewicz, L., McKinley, B. and Hochberg, R. B. (1990) A simple and sensitive microtiter plate estrogen bioassay based on stimulation alkaline phosphatase in Ishikawa cells; Estrogen action of D5 adrenal steroids. Endocrinology, 6:2757-2762.

[2] = target: T1, human estrogen receptor (Homo sapiens, UniProt P03372); assay: In vitro estrogen receptor binding test procedure ([3H]-17β-estradiol competition); conditions: read-out: Receptor IC50
T1 construct: expressed in transfected cells; host or cells: Chinese Hamster ovary (CHO) cells; ribosome-free cytosol
T1 sequence (P03372 1-595): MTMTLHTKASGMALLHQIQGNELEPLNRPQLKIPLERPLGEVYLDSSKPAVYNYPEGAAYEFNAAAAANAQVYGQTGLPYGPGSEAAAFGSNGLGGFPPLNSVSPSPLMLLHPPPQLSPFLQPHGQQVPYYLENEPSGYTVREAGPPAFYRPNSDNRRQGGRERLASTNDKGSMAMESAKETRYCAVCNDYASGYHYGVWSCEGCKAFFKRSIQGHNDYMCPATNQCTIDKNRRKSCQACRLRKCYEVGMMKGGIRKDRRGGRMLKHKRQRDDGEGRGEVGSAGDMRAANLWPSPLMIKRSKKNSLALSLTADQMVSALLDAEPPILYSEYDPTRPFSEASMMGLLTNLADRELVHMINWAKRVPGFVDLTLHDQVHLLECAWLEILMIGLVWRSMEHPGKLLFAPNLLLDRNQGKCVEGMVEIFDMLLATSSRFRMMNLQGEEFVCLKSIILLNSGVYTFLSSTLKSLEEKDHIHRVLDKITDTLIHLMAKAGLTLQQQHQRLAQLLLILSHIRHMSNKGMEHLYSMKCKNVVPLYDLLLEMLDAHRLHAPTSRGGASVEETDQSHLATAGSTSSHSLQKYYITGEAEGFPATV
Method: In vitro Estrogen Receptor Binding Test Procedure
Chinese Hamster ovary (CHO) cells overexpressing the estrogen receptor were grown in […] dishes in DMEM+10% dextran coated charcoal, stripped fetal bovine serum. The plates were washed twice with PBS and once with 10 mM Tris-HCl, pH 7.4, 1 mM EDTA. Cells were harvested by scraping the surface and then the cell suspension was placed on ice. Cells were disrupted with a hand-held motorized tissue grinder using two, 10-second bursts. The crude preparation was centrifuged at 12,000 g for 20 minutes followed by a 60 minute spin at 100,000 G to produce a ribosome free cytosol. The cytosol was then frozen and stored at −80° C. Protein concentration of the cytosol was estimated using the BCA assay with reference standard protein.
Binding Test Procedure Conditions
100 uG/100 uL of the receptor preparation was aliquoted per well. […] The plate was incubated at room temperature for 2.5 h. At the end of this incubation period 150 uL of ice-cold dextran coated charcoal (5% activated charcoal coated with 0.05% 69K dextran) was added to each well and the plate was immediately centrifuged at 99 g for 5 minutes at 4° C. 200 uL of the supernatant solution was then removed for scintillation counting. Samples were counted to 2% or 10 minutes, whichever occurs first. […] Also, wells containing radioactivity but no cytosol were processed with charcoal to estimate unremovable DPM of [^3H] […] 96-well plates were used because they have proven to bind the least amount of estradiol.
Counts per minute (CPM) of radioactivity were automatically converted to disintegrated per minute (DPM) by the Beckman LS 7500 Scintillation Counter using a set of quenched standards to generate a H# for each sample. To calculate the % of estradiol binding in the presence of 100 or 500 fold competitor the following formula was applied:
((DPM sample−DPM not removed by charcoal/(DPM estradiol−DPM not removed by charcoal))×100%=% of estradiol binding
For the generation of IC50 curves, % binding is plotted vs compound. […] Values are reported as IC50 values. […] For a description of these methods, see Hulme, E. C., ed. 1992. Receptor-Ligand Interactions: A Practical Approach. IRL Press, New York.(see especially chapter 8).
Compounds were tested for their ability to displace estradiol in a human ER-receptor preparation as described above.

[3] = test system: rat uterus; assay: Rat uterotrophic/antiuterotrophic test procedure; type: in vivo; conditions: daily ip, 4-day immature rat
Method: Rat Uterotrophic/Antiuterotrophic Test Procedure
The estrogenic and antiestrogenic properties of the compounds were determined in a 4-day immature rat uterotrophic assay (as described previously by L. J. Black and R. L. Goode, Life Sciences, 26, 1453 (1980)). Immature Sprague-Dawley rats (female, 18 days old) were tested in groups of six. […] On day 4 the animals were sacrificed by CO2 asphyxiation and their uteri were removed and stripped of excess lipid, any fluid removed and the wet weight determined. A small section of one horn was submitted for histology and the remainder used to isolate total RNA in order to evaluate complement component 3 gene expression.
Representative compounds of this invention were evaluated in the rat uterotrophic/antiuterotrophic assay to determine their in vivo effects on the rat uterus.

[4] = 1 uM compound + 1 nM E2, antagonist mode

Row | SMILES | Alkaline phosphatase activity, percent of response related to 1 nM 17β-estradiol ([1]; 0.01 uM compound, agonist mode) | Alkaline phosphatase activity, percent of response related to 1 nM 17β-estradiol ([1]; 0.1 uM compound, agonist mode) | Alkaline phosphatase activity, percent of response related to 1 nM 17β-estradiol [1, 4] | Alkaline phosphatase activity, percent of response related to 1 nM 17β-estradiol ([1]; 1 uM compound, agonist mode) | IC50 [2] | Uterine wet weight ([3]; 1 ug Cpd) | Uterine wet weight ([3]; 100 ug Cpd)
1 | C[C@]12CC[C@@H]3c4ccc(O)cc4C[C@@H](Sc4ccc(Br)cc4)[C@H]3[C@@H]1CC[C@@H]2O [Example 8, (7α,17β) 7-(4-Bromophenyl)thio-estra-1,3,5(10)-triene-3,17-diol] | 29% | 59% | 95% | 92% | 800 nM | 35.8 mg | 64.7 mg
2 | C[C@]12CC[C@@H]3c4ccc(O)cc4C[C@@H](Sc4ccc(O)cc4)[C@H]3[C@@H]1CC[C@@H]2O [Example 4, (7α,17β) 7-(4-Hydroxyphenyl)thio-estra-1,3,5(10)-triene-3,17-diol] | 7% | 47% | 6% | 57% | 300 nM | 37.9 mg | 45.4 mg
